Test results published in patent publication US5733719A, “Method of making an assay compound” (priority 1995, dated 1998).
Numbered stars: 1 amine (or outer) side, 2 acyl side, 3 side chain; on linkers, the order of the positions; unused ones are H or OH. Bridge positions count the residues as written; N and C are the ends. Peptide text beside a SMILES is read from it. I, II: the chains in the order shown. Rhodamine110 = O=C1OC2(c3ccc(N[*:1])cc3Oc3cc(N[*:2])ccc32)c2ccccc21

Legend:
[1] = tested on: Grans; experiment: Peptidases to distinguish leukemia from non-leukemia, granulocytes; assay type: cell-based, human; set-up: unit not given here
From the text: (§1) Artificial intelligence was used to analyze data of cellular enzyme functions, and determine normal and disease states. Peptidases were used to distinguish leukemia from non-leukemia (output pattern). For input patterns lymphocyte and granulocyte cell types were used with aminopeptidases, cathepsins and dipeptidylpeptidase enzyme activities. In this Example, illustrated in Tables 6A-6C, three normals and three leukemia patients were used as known output patterns for the neural network to learn (in practice, the larger the learning set the more accurate unknown prediction will be). Unknowns were then presented to the learned algorithm as shown in the test case examples. Clinical diagnosis was confirmed by physicians. The trained neural network was able to correctly classify the leukemia from the non-leukemia.

[2] = tested on: Lymphs; experiment: Peptidases to distinguish leukemia from non-leukemia, lymphocytes; assay type: cell-based, human; set-up: unit not given here
From the text: as §1

[3] = tested on: enzyme; experiment: Effect of dithioerythritol (DTE) on substrate sensitivity; conditions: dithioerythritol (DTE) at 1 mM
From the text: Modulators are components used to […] the sensitivity of the enzyme for the leaving group. The modulators speed up or slow down the activity of an enzyme by changing the active site. […] Preferred modulators for particular enzymes are included in Table 1.

## NC(=O)CC[C@H](N)C(=O)N[C@@H](CO)C(=O)Nc1ccc2c(c1)Oc1cc(NC(=O)[C@H](CO)NC(=O)[C@@H](N)CCC(N)=O)ccc1C21OC(=O)c2ccccc21 [QS, (H--L--Gln--Ser)2 Rho 110-2TFA]
[1]; J4 11/21/91 acute leuk.
  enzyme activity: 0.22
[1]; J4 12/2/91 AL
  enzyme activity: 0.44
[1]; J4 12/3/91 acute leuk.
  enzyme activity: 0.19
[1]; J5 11/27/91 AML
  enzyme activity: 1.24
[1]; J19 11/27/91 CLL
  enzyme activity: 1.16
[1]; J22 12/2/91 AML
  enzyme activity: 0.10
[1]; J22 12/9/91 AML
  enzyme activity: 0.24
[1]; N99° normal
  enzyme activity: 0.05
[1]; N191 normal
  enzyme activity: 0.19
[1]; N192 normal
  enzyme activity: 0.15
[1]; N193 normal
  enzyme activity: 0.14
[1]; N194 normal
  enzyme activity: 0.07
[1]; N195 normal
  enzyme activity: 0.21
[1]; N197 normal
  enzyme activity: 0.24
[1]; N200 normal
  enzyme activity: 0.06
[1]; N201 normal
  enzyme activity: 0.09
[1]; N202 normal
  enzyme activity: 0.08
[1]; N206 normal
  enzyme activity: 0.27
[1]; P68 tachycardia
  enzyme activity: 0.33
[1]; P69 pancreatic CA
  enzyme activity: 0.37
[1]; P70 cirrhosis/hemobilia
  enzyme activity: 0.19
[1]; P71 ac. pyelonephritis
  enzyme activity: 0.51
[2]; J4 11/21/91 acute leuk.
  enzyme activity: 0.05
[2]; J4 12/2/91 AL
  enzyme activity: 0.01
[2]; J4 12/3/91 acute leuk.
  enzyme activity: 0.06
[2]; J5 11/27/91 AML
  enzyme activity: 0.07
[2]; J19 11/27/91 CLL
  enzyme activity: 0.06
[2]; J22 12/2/91 AML
  enzyme activity: 0.02
[2]; J22 12/9/91 AML
  enzyme activity: 0.02
[2]; N99° normal
  enzyme activity: 0.02
[2]; N191 normal
  enzyme activity: 0.02
[2]; N192 normal
  enzyme activity: 0.03
[2]; N193 normal
  enzyme activity: 0.03
[2]; N194 normal
  enzyme activity: 0.02
[2]; N195 normal
  enzyme activity: 0.04
[2]; N197 normal
  enzyme activity: 0.06
[2]; N200 normal
  enzyme activity: 0.01
[2]; N201 normal
  enzyme activity: 0.02
[2]; N202 normal
  enzyme activity: 0.01
[2]; N206 normal
  enzyme activity: 0.04
[2]; P68 tachycardia
  enzyme activity: 0.02
[2]; P69 pancreatic CA
  enzyme activity: 0.31
[2]; P70 cirrhosis/hemobilia
  enzyme activity: 0.04
[2]; P71 ac. pyelonephritis
  enzyme activity: 0.05

## C[C@@H](O)[C@H](N)C(=O)N1CCC[C@H]1C(=O)Nc1ccc2c(c1)Oc1cc(NC(=O)[C@@H]3CCCN3C(=O)[C@@H](N)[C@@H](C)O)ccc1C21OC(=O)c2ccccc21 [TP]
[1]; J4 11/21/91 acute leuk.
  enzyme activity: 5.96
[1]; J4 12/2/91 AL
  enzyme activity: 2.59
[1]; J4 12/3/91 acute leuk.
  enzyme activity: 1.93
[1]; J5 11/27/91 AML
  enzyme activity: 2.72
[1]; J19 11/27/91 CLL
  enzyme activity: 2.95
[1]; J22 12/2/91 AML
  enzyme activity: 2.33
[1]; J22 12/9/91 AML
  enzyme activity: 2.51
[1]; N99° normal
  enzyme activity: 3.71
[1]; N191 normal
  enzyme activity: 4.73
[1]; N192 normal
  enzyme activity: 4.62
[1]; N193 normal
  enzyme activity: 4.96
[1]; N194 normal
  enzyme activity: 3.77
[1]; N195 normal
  enzyme activity: 3.74
[1]; N197 normal
  enzyme activity: 3.82
[1]; N200 normal
  enzyme activity: 4.69
[1]; N201 normal
  enzyme activity: 4.23
[1]; N202 normal
  enzyme activity: 4.44
[1]; N206 normal
  enzyme activity: 5.98
[1]; P68 tachycardia
  enzyme activity: 4.63
[1]; P69 pancreatic CA
  enzyme activity: 4.21
[1]; P70 cirrhosis/hemobilia
  enzyme activity: 4.02
[1]; P71 ac. pyelonephritis
  enzyme activity: 4.37
[2]; J4 11/21/91 acute leuk.
  enzyme activity: 2.30
[2]; J4 12/2/91 AL
  enzyme activity: 1.46
[2]; J4 12/3/91 acute leuk.
  enzyme activity: 1.18
[2]; J5 11/27/91 AML
  enzyme activity: 1.32
[2]; J19 11/27/91 CLL
  enzyme activity: 0.50
[2]; J22 12/2/91 AML
  enzyme activity: 0.99
[2]; J22 12/9/91 AML
  enzyme activity: 1.02
[2]; N99° normal
  enzyme activity: 1.86
[2]; N191 normal
  enzyme activity: 2.14
[2]; N192 normal
  enzyme activity: 2.12
[2]; N194 normal
  enzyme activity: 1.82
[2]; N195 normal
  enzyme activity: 1.90
[2]; N197 normal
  enzyme activity: 1.96
[2]; N200 normal
  enzyme activity: 2.39
[2]; N201 normal
  enzyme activity: 1.88
[2]; N202 normal
  enzyme activity: 2.49
[2]; N206 normal
  enzyme activity: 2.89
[2]; P68 tachycardia
  enzyme activity: 1.90
[2]; P69 pancreatic CA
  enzyme activity: 2.26
[2]; P70 cirrhosis/hemobilia
  enzyme activity: 1.89
[2]; P71 ac. pyelonephritis
  enzyme activity: 1.86

## CC(C)[C@H](N)C(=O)N[C@@H](CO)C(=O)Nc1ccc2c(c1)Oc1cc(NC(=O)[C@H](CO)NC(=O)[C@@H](N)C(C)C)ccc1C21OC(=O)c2ccccc21 [VS, (H--L--Val--Ser)2 Rho 110-2TFA]
[1]; J4 11/21/91 acute leuk.
  enzyme activity: 0.37
[1]; J4 12/2/91 AL
  enzyme activity: 0.14
[1]; J4 12/3/91 acute leuk.
  enzyme activity: 0.23
[1]; J5 11/27/91 AML
  enzyme activity: 1.13
[1]; J19 11/27/91 CLL
  enzyme activity: 2.83
[1]; J22 12/2/91 AML
  enzyme activity: 0.22
[1]; J22 12/9/91 AML
  enzyme activity: 0.32
[1]; N99° normal
  enzyme activity: 0.14
[1]; N191 normal
  enzyme activity: 0.64
[1]; N192 normal
  enzyme activity: 0.40
[1]; N193 normal
  enzyme activity: 0.44
[1]; N194 normal
  enzyme activity: 0.29
[1]; N195 normal
  enzyme activity: 0.37
[1]; N197 normal
  enzyme activity: 0.58
[1]; N200 normal
  enzyme activity: 0.24
[1]; N201 normal
  enzyme activity: 0.32
[1]; N202 normal
  enzyme activity: 0.24
[1]; N206 normal
  enzyme activity: 1.03
[1]; P68 tachycardia
  enzyme activity: 0.33
[1]; P69 pancreatic CA
  enzyme activity: 0.57
[1]; P70 cirrhosis/hemobilia
  enzyme activity: 0.26
[1]; P71 ac. pyelonephritis
  enzyme activity: 0.69
[2]; J4 11/21/91 acute leuk.
  enzyme activity: 0.05
[2]; J4 12/2/91 AL
  enzyme activity: 0.03
[2]; J4 12/3/91 acute leuk.
  enzyme activity: 0.04
[2]; J5 11/27/91 AML
  enzyme activity: 0.05
[2]; J19 11/27/91 CLL
  enzyme activity: 0.01
[2]; J22 12/2/91 AML
  enzyme activity: 0.01
[2]; J22 12/9/91 AML
  enzyme activity: 0.04
[2]; N99° normal
  enzyme activity: 0.03
[2]; N191 normal
  enzyme activity: 0.14
[2]; N192 normal
  enzyme activity: 0.08
[2]; N193 normal
  enzyme activity: 0.09
[2]; N194 normal
  enzyme activity: 0.07
[2]; N195 normal
  enzyme activity: 0.06
[2]; N197 normal
  enzyme activity: 0.11
[2]; N200 normal
  enzyme activity: 0.06
[2]; N201 normal
  enzyme activity: 0.07
[2]; N202 normal
  enzyme activity: 0.04
[2]; N206 normal
  enzyme activity: 0.28
[2]; P68 tachycardia
  enzyme activity: 0.05
[2]; P69 pancreatic CA
  enzyme activity: 0.18
[2]; P70 cirrhosis/hemobilia
  enzyme activity: 0.04
[2]; P71 ac. pyelonephritis
  enzyme activity: 0.08

## CC(C)[C@H](N)C(=O)N[C@@H](CCCCN)C(=O)N[C@H](C(=O)N[C@@H](CCCCN)C(=O)Nc1ccc2c(c1)Oc1cc(NC(=O)[C@H](CCCCN)NC(=O)[C@@H](NC(=O)[C@H](CCCCN)NC(=O)[C@@H](N)C(C)C)C(C)C)ccc1C21OC(=O)c2ccccc21)C(C)C [Val-Lys-Val-Lys, (H--L--Val--Lys--Val--Lys)2 Rho 110-6TFA] (I: H-VKVK / II: H-VKVK; linker I:C-II:C via Rhodamine110)
[3]
  effect of DTE on sensitivity: decreases the sensitivity
